Assays:
[1] = system: Clone #17 T-DM1 resistant KPL-4 human breast cancer xenografts; test: xenograft study, tumor volume; type: in vivo, SCID beige mice
Excerpt: For all xenograft studies, three million T-DM1-resistant KPL-4 breast cancer cells were implanted in #2/3 mammary fat pads of female SCID-beige mice. […] The results of these xenograft studies for xenografts of various clones of the T-DM1-resistant KPL-4 breast cancer cells are shown in FIGS. 5B and 6C.

[2] = cited from earlier work
[3] = system: T-DM1-resistant KPL-4 (HER2+) breast cancer cells; test: caspase 3/7 activation luminescence assay (Caspase-Glo); type: cell-based, human; settings: 48 hours; T-DM1 0.1 or 1 μg/mL; GDC-0199 1, 2.5 or 5 μM
Procedure: (§1) In the present experiment, caspase 3/7 activation luminescence assay was performed using the Caspase-Glo® reagent (Promega) essentially following manufacturer's instructions. […]

KPL-4 parental cells = test: as above; type: cell-based, human
Procedure: as §1

[4] = system: Clone #17 T-DM1 resistant KPL-4 human breast cancer cell line; test: as above; type: cell-based; settings: 48 hours; 1 ug/mL T-DM1 alone or with indicated doses of GDC-0199
Procedure: as §1

[5] = weekly dosing with 2.4 mg/kg; cited from earlier work
[6] = system: HER2+ HCC1569 breast cancer cells (T-DM1 naive); test: caspase 3/7 activation luminescent in vitro apoptosis assay; type: cell-based; settings: 24 hours; five concentrations of GDC-0199, 9 concentrations of T-DM1
Procedure: (§2) In the present experiment, caspase 3/7 activation luminescence assay was performed using the Caspase-Glo® reagent (Promega) essentially following manufacturer's instructions. Assays were performed in the same manner as the viability assays except that drug incubation times were 24 hours and Caspase-Glo 3/7 (Promega) was used to measure apoptosis.
(§3) Caspase 3/7 activation luminescence assay was performed as described in Example 3.

[7] = system: HER2+ MDA-MB-361 breast cancer cells (T-DM1 naive); test: as above; type: cell-based; settings: 24 hours; five concentrations of GDC-0199, 9 concentrations of T-DM1
Procedure: as §2, §3

Bcl-2 = settings: T-DM1 1.25 μg/mL; cell lines BT-474, MDA_361 and ZR-75-30
Procedure: Western blot analysis was performed as follows: Cells were lysed in corrected FLAG elution buffer (CFEB) (19.17 mM Tris (pH 7.5), 916.7 μM MgCl2, 92.5 mM NaCl and 0.1% Triton X-100) with protease and phosphatase inhibitors (Roche); in some cases 6 M urea was added. Cleared lysates were quantitated and equal amounts of proteins were reduced, alkylated, separated by SDS-PAGE, and transferred onto PVDF membranes (Invitrogen) following standard procedures. Western blotting was performed as recommended by the respective antibody manufacturers.
The effect of treatment with T-DM1 (1.25 μg/mL) alone or in combination with GDC-0199 (1.25 μM) was studied on various T-DM1 naïve HER2+ breast cancer cell lines.

CC1(C)CCC(CN2CCN(c3ccc(C(=O)NS(=O)(=O)c4ccc(NCC5CCOCC5)c([N+](=O)[O-])c4)c(Oc4cnc5[nH]ccc5c4)c3)CC2)=C(c2ccc(Cl)cc2)C1 [GDC-0199, 2-(1H-pyrrolo[2,3-b]pyridin-5-yloxy)-4-(4-((2-(4-chlorophenyl)-4,4-dimethylcyclohex-1-enyl)methyl)piperazin-1-yl)-N-(3-nitro-4-((tetrahydro-2H-pyran-4-yl)methylamino)phenylsulfonyl)benzamide]
tumor growth (tumor volume) ([1]; 100 mg/kg): no activity

COc1cc2cc(c1Cl)N(C)C(=O)C[C@H](OC(=O)[C@H](C)N(C)C(C)=O)[C@]1(C)O[C@H]1[C@H](C)[C@@H]1C[C@@](O)(NC(=O)O1)[C@H](OC)/C=C/C=C(\C)C2 [maytansine]
dose-limiting toxicity (DLT) ([2]; 2.0 mg/m2 every 3 weeks, single dose or 3 consecutive days): gastrointestinal | activity in the clinic ([2]; at doses that could be safely delivered): modest

trastuzumab-MCC-DM1 [T-DM1]
tumor growth (tumor volume) ([1]; T-DM1 5 mg/kg administered once, GDC-0199 100 mg/kg qd×21): no activity | activation of caspases 3 and 7 (apoptosis) [3]: minimal effect | activation of caspases 3 and 7 (apoptosis) (KPL-4 parental cells; 24 hours of drug treatment): no effect | activation of caspases 3 and 7 (apoptosis) (KPL-4 parental cells; 48 hours, T-DM1 0.1 or 1 μg/mL, GDC-0199 1, 2.5 or 5 μM): robust activation | activation of caspases 3 and 7 (apoptosis) [4]: minimal effect | anti-tumor activity [5]: anti-tumor activity | caspase 3/7 activity (apoptosis) [6]: does not induce apoptosis | caspase 3/7 activity (apoptosis) [7]: caspases 3 and 7 activation | phosphorylation of Bcl-2 after treatment (Western blot) (Bcl-2): phosphorylation of Bcl-2

Reference: US10898570B2, “Combination therapy with an anti-HER2 antibody-drug conjugate and a Bcl-2 inhibitor” (Genentech, Inc., priority 2015, dated 2021)
